Measurements from the NIST ThermoML archive (doi:10.1021/je600583u).

Experiment: xn = mol fraction of the nth substance listed
Details: Fluid (supercritical or subcritical phases), isochoric method

CC(F)F [1,1-difluoroethane] + O=C=O
Details	molar volume [m3/mol]
293.08 K, 3005 kPa, x2 = 0.873	0.000595
293.09 K, 577 kPa, x2 = 0.25	0.003751
293.09 K, 699 kPa, x2 = 0.389	0.00308
293.09 K, 930 kPa, x2 = 0.503	0.002291
293.09 K, 1290 kPa, x2 = 0.685	0.001629
293.09 K, 1572 kPa, x2 = 0.731	0.001321
293.1 K, 1257 kPa, x2 = 0.631	0.001641
298.07 K, 590 kPa, x2 = 0.25	0.003752
298.07 K, 715 kPa, x2 = 0.389	0.003081
298.07 K, 952 kPa, x2 = 0.503	0.002292
298.07 K, 1610 kPa, x2 = 0.731	0.001321
298.07 K, 3114 kPa, x2 = 0.873	0.000595
298.08 K, 1320 kPa, x2 = 0.685	0.00163
298.09 K, 1287 kPa, x2 = 0.631	0.001641
303.04 K, 3203 kPa, x2 = 0.873	0.000595
303.05 K, 602 kPa, x2 = 0.25	0.003753
303.05 K, 973 kPa, x2 = 0.503	0.002292
303.06 K, 589 kPa, x2 = 0.117	0.003796
303.06 K, 731 kPa, x2 = 0.389	0.003081
303.06 K, 1350 kPa, x2 = 0.685	0.00163
303.06 K, 1648 kPa, x2 = 0.731	0.001321
303.07 K, 1317 kPa, x2 = 0.631	0.001642
308.03 K, 602 kPa, x2 = 0.117	0.003797
308.03 K, 3292 kPa, x2 = 0.873	0.000595
308.04 K, 615 kPa, x2 = 0.25	0.003753
308.04 K, 746 kPa, x2 = 0.389	0.003082
308.04 K, 994 kPa, x2 = 0.503	0.002293
308.04 K, 1380 kPa, x2 = 0.685	0.00163
308.05 K, 1346 kPa, x2 = 0.631	0.001642
308.05 K, 1685 kPa, x2 = 0.731	0.001322
313.02 K, 615 kPa, x2 = 0.117	0.003798
313.02 K, 3380 kPa, x2 = 0.873	0.000595
313.03 K, 627 kPa, x2 = 0.25	0.003754
313.03 K, 761 kPa, x2 = 0.389	0.003083
313.03 K, 1015 kPa, x2 = 0.503	0.002293
313.03 K, 1409 kPa, x2 = 0.685	0.001631
313.03 K, 1722 kPa, x2 = 0.731	0.001322
313.04 K, 1375 kPa, x2 = 0.631	0.001642
318 K, 3467 kPa, x2 = 0.873	0.000596
318.01 K, 627 kPa, x2 = 0.117	0.003799
318.01 K, 776 kPa, x2 = 0.389	0.003084
318.01 K, 1035 kPa, x2 = 0.503	0.002294
318.01 K, 1438 kPa, x2 = 0.685	0.001631
318.02 K, 640 kPa, x2 = 0.25	0.003755
318.02 K, 1758 kPa, x2 = 0.731	0.001322
318.03 K, 1404 kPa, x2 = 0.631	0.001643
323 K, 640 kPa, x2 = 0.117	0.0038
323 K, 652 kPa, x2 = 0.25	0.003756
323 K, 791 kPa, x2 = 0.389	0.003084
323 K, 1056 kPa, x2 = 0.503	0.002294
323 K, 1467 kPa, x2 = 0.685	0.001632
323 K, 1794 kPa, x2 = 0.731	0.001322
323 K, 3554 kPa, x2 = 0.873	0.000596
323.01 K, 1433 kPa, x2 = 0.631	0.001643
327.97 K, 3638 kPa, x2 = 0.873	0.000596
327.98 K, 652 kPa, x2 = 0.117	0.003801
327.98 K, 1076 kPa, x2 = 0.503	0.002295
327.98 K, 1830 kPa, x2 = 0.731	0.001323
327.99 K, 664 kPa, x2 = 0.25	0.003757
327.99 K, 806 kPa, x2 = 0.389	0.003085
327.99 K, 1496 kPa, x2 = 0.685	0.001632
328 K, 1461 kPa, x2 = 0.631	0.001643
332.96 K, 3723 kPa, x2 = 0.873	0.000596
332.97 K, 664 kPa, x2 = 0.117	0.003801
332.97 K, 820 kPa, x2 = 0.389	0.003086
332.97 K, 1096 kPa, x2 = 0.503	0.002295
332.97 K, 1524 kPa, x2 = 0.685	0.001632
332.97 K, 1866 kPa, x2 = 0.731	0.001323
332.98 K, 676 kPa, x2 = 0.25	0.003758
332.98 K, 1489 kPa, x2 = 0.631	0.001644
337.94 K, 3807 kPa, x2 = 0.873	0.000596
337.95 K, 835 kPa, x2 = 0.389	0.003086
337.95 K, 1116 kPa, x2 = 0.503	0.002296
337.96 K, 677 kPa, x2 = 0.117	0.003802
337.96 K, 688 kPa, x2 = 0.25	0.003758
337.96 K, 1553 kPa, x2 = 0.685	0.001633
337.96 K, 1901 kPa, x2 = 0.731	0.001323
337.97 K, 1517 kPa, x2 = 0.631	0.001644
342.93 K, 3890 kPa, x2 = 0.873	0.000596
342.94 K, 850 kPa, x2 = 0.389	0.003087
342.94 K, 1136 kPa, x2 = 0.503	0.002296
342.94 K, 1580 kPa, x2 = 0.685	0.001633
342.94 K, 1936 kPa, x2 = 0.731	0.001324
342.95 K, 689 kPa, x2 = 0.117	0.003803
342.95 K, 700 kPa, x2 = 0.25	0.003759
342.96 K, 1545 kPa, x2 = 0.631	0.001645
